Measured values reported in patent US4175081A, “5-Substituted thiadiazole ureas” (priority 1977, dated 1979).

Legend:
Turnip (TP) [1] = test: Pre-emergence herbicide test; format: in vivo, Brassica sp.; conditions: Brassica rapa, pre-emergence, 336 h; 8 lb/acre; two weeks after treatment
In short: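 In this pre-emergence greenhouse test, turnip was seeded on the surface of potting soil in 3' plastic pots, lightly covered with screened soil, and watered from below. One day later the pots were sprayed in a belt-fed spray hood. Watering continued only by sub-irrigation, and percent control was visually scored two weeks after treatment.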

[2] = test system: Yellow foxtail grass (YF); test: Post-emergence herbicide test; format: in vivo, Setaria glauca; conditions: Setaria, 336 h, 8 lb/acre, two weeks after treatment
Experimental: Yellow foxtail grass (YF)--Setaria glauca
All crop and weed species were planted individually in 3' plastic pots containing potting soil. Four seeds each of corn, cotton, and snapbeans were seeded to a depth equal to the diameter of the seed. All other species were surface seeded and sprinkled with screened soil in an amount sufficient to cover the seed. Immediately after planting, all pots were watered by sub-irrigation in greenhouse trays. Pots for the pre-emergence phase were seeded one day before treatment.
Planting dates for the post-emergence phase were varied so that all seedlings would reach the desired stage of development simultaneously. The proper stage of seedling development for treatment in the post-emergence phase is as follows:
Compounds were tested at rates of application equivalent to 8 lbs. of actual compound per acre in a spray volume of 38 gallons per acre. Spray hood constants required to deliver the above volume are as follows:
Formulations for spray applications were prepared in 50 ml volumes with the following three components:
Formulations for the 4 lbs/acre rate were prepared by adjusting the amount of active ingredient accordingly.
Spray applications were made in a hood containing a removable belt and fixed spray nozzle. For passage through the spray hood, one pot of each specie (pre-emergence phase) was placed on the rear half of the flat. Treatments were removed to the greenhouse after spraying. Watering during the observation period was done only by sub-irrigation.
Two weeks after treatment, pre- and post-emergence injury or control was visually rated, and the results were as shown in the following tables. Pre-emergence data are provided in TABLE III and post-emergence data are provided in TABLE IV, for compounds having the formula illustrated in TABLE I. Correspondingly, pre-emergence and post-emergence data, respectively, are set forth in TABLES V AND VI, for compounds having the formula illustrated in TABLE II.

Johnson grass (JG) [3] = test: Post-emergence herbicide test; format: in vivo, Sorgum helepense; conditions: Sorghum halepense, 336 h, 8 lb/acre, two weeks after treatment
In short: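 Visual injury or control scores taken 2 weeks after a post-emergence spray of pot-grown plants. Application was 8 lbs/acre (or 4 lbs/acre) in 38 gal/acre. Plants were held in the greenhouse with sub-irrigation only.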

Crabgrass (CG) [4] = test: Pre-emergence herbicide test; format: in vivo, Digitaria sanquinalis; conditions: Digitaria sanguinalis, pre-emergence, 336 h; 8 lb/acre; two weeks after treatment
In short: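 Crabgrass (Digitaria sanquinalis) was surface seeded in 3' plastic pots of potting soil, covered with screened soil, and watered by sub-irrigation in greenhouse trays. Pots were seeded one day before spraying in a hood with a moving belt and fixed nozzle. Plants stayed in the greenhouse on sub-irrigation, and pre-emergence control was rated visually two weeks after treatment.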

Corn (CN) [5] = test: Post-emergence herbicide test; format: in vivo; conditions: Zea mays, 336 h, 8 lb/acre, two weeks after treatment
In short: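 Greenhouse seedlings grown in potting soil and sprayed post-emergence at 8 lbs compound/acre (formulations also made for 4 lbs/acre) in 38 gallons/acre spray volume. Watering by sub-irrigation only. Injury or control rated visually two weeks after treatment.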

Barnyard grass (BG) [6] = test: Pre-emergence herbicide test; format: in vivo; conditions: Echinochloa crus-galli, 336 h, 8 lb/acre, two weeks after treatment
In short: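 Greenhouse pre-emergence spray test: pots seeded one day before treatment received compound at rates of 8 or 4 lb/acre (38 gal/acre). Visual injury/control scores for Echinochloa crus-galli taken at two weeks, with watering by sub-irrigation only.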

Cotton (CT) [7] = test: Post-emergence herbicide test; format: in vivo, Gossypium hirsutum var. DPL smooth leaf; conditions: Gossypium hirsutum, post-emergence, 336 h; 8 lb/acre; two weeks after treatment
In short: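 This greenhouse post-emergence test measured how well spray treatments controlled cotton. Seedlings of Gossypium hirsutum var. DPL smooth leaf, with expanded cotyledons and a first true leaf 1' in length, were sprayed with 50 ml formulations in a belt-fed spray hood. They were then returned to the greenhouse and watered only by sub-irrigation. Injury was scored visually as % control after two weeks.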

Turnip (TP) [8] = test: Post-emergence herbicide test; format: in vivo, Brassica sp.; conditions: Brassica rapa, post-emergence, 336 h; 8 lb/acre; two weeks after treatment
In short: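 A greenhouse post-emergence herbicide test on turnip. Seeds were sown on the surface of potting soil in 3' plastic pots, lightly covered with screened soil and watered from below. Planting was timed so seedlings had 1 or 2 true leaves above the cotyledons at spraying, done in a hood with a fixed nozzle. Control or injury was scored by eye after two weeks.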

Cotton (CT) [9] = test: Pre-emergence herbicide test; format: in vivo, Gossypium hirsutum var. DPL smooth leaf; conditions: Gossypium hirsutum, 336 h, 8 lb/acre, two weeks after treatment
In short: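 Visual injury/control ratings were taken at two weeks post-spray. Pots seeded a day earlier received compound pre-emergence at 8 lbs/acre, or 4 lbs/acre, in a 38 gallon/acre spray volume, and were then held in the greenhouse, watered only from below.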

Bean (BN) [10] = test: Post-emergence herbicide test; format: in vivo, Phaseolus vulgaris var. Black Valentine; conditions: Phaseolus vulgaris, post-emergence, 336 h; 8 lb/acre; two weeks after treatment
In short: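 Bean seedlings (Phaseolus vulgaris var. Black Valentine) were grown in potting soil in 3' pots until the primary leaves expanded. They were then sprayed under a hood with a removable belt and fixed nozzle, using 50 ml formulations. Afterward they were returned to the greenhouse and watered only by sub-irrigation. Percent control was judged visually two weeks after treatment.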

Barnyard grass (BG) [11] = test: Post-emergence herbicide test; format: in vivo; conditions: Echinochloa crus-galli, 336 h, 8 lb/acre, two weeks after treatment
In short: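 Greenhouse pot-grown barnyard grass seedlings sprayed post-emergence at 8 lbs active compound per acre (some at 4 lbs/acre) in 38 gallons per acre, then sub-irrigated. Injury or control rated visually two weeks after treatment.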

Johnson grass (JG) [12] = test: Pre-emergence herbicide test; format: in vivo, Sorgum helepense; conditions: Sorghum halepense, 336 h, 8 lb/acre, two weeks after treatment
In short: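 Visual injury or control rating two weeks post-treatment, after pre-emergence spray of 8 or 4 lbs active per acre (38 gal/acre) onto pots sown the previous day. Greenhouse watering by sub-irrigation only.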

Corn (CN) [13] = test: Pre-emergence herbicide test; format: in vivo; conditions: Zea mays, 336 h, 8 lb/acre, two weeks after treatment
In short: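 Visual injury/control ratings were made 2 weeks post-spray on corn pots seeded (4 seeds, seed-diameter depth) the day before treatment. Application was a belt-hood spray of 38 gal/acre delivering 8 lbs active per acre, with a 4 lbs/acre rate also formulated. Watering was by sub-irrigation throughout.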

Crabgrass (CG) [14] = test: Post-emergence herbicide test; format: in vivo, Digitaria sanquinalis; conditions: Digitaria sanguinalis, post-emergence, 336 h; 8 lb/acre; two weeks after treatment
In short: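 Crabgrass (Digitaria sanquinalis) was surface seeded individually in 3' plastic pots of potting soil, covered with screened soil, and watered by sub-irrigation in greenhouse trays. Planting was staggered so seedlings reached the target stage together. Post-emergence sprays were applied in a hood with a removable belt and fixed nozzle, and control was visually rated two weeks after treatment.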

Bean (BN) [15] = test: Pre-emergence herbicide test; format: in vivo, Phaseolus vulgaris var. Black Valentine; conditions: Phaseolus vulgaris, 336 h, 8 lb/acre, two weeks after treatment
In short: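 Visual injury/control ratings were taken two weeks post-spray on sub-irrigated Phaseolus vulgaris var. Black Valentine. Pots were sown a day before treatment. Pre-emergence spray delivered 8 lbs actual compound per acre (or 4 lbs/acre) at 38 gallons per acre.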

Amaranth pigweed (PW) [16] = test: Pre-emergence herbicide test; format: in vivo, Amaranthus retroflexus; conditions: 336 h, 8 lb/acre, two weeks after treatment
In short: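 Visual injury or control ratings were made at two weeks on pre-emergence pots, sub-irrigated in the greenhouse. Seeds were sown a day before a hood spray delivering 8 lbs/acre (or 4 lbs/acre) of compound in 38 gallons per acre.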

Amaranth pigweed (PW) [17] = test: Post-emergence herbicide test; format: in vivo, Amaranthus retroflexus; conditions: 336 h, 8 lb/acre, two weeks after treatment
In short: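 Visual injury or control ratings were made two weeks after spraying, with greenhouse watering by sub-irrigation only. Treatment was post-emergence, when pigweed seedlings had 1 or 2 true leaves, at 8 lbs active compound per acre (4 lbs/acre formulations also made) in a 38 gallons-per-acre spray volume.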

| Structure (SMILES) | pest or weed control at 8966.8 g/ha (Turnip (TP) [1]) [%] | pest or weed control at 8966.8 g/ha [2] [%] | pest or weed control at 8966.8 g/ha (Johnson grass (JG) [3]) [%] | pest or weed control at 8966.8 g/ha (Crabgrass (CG) [4]) [%] | pest or weed control at 8966.8 g/ha (Corn (CN) [5]) [%] | pest or weed control at 8966.8 g/ha (Barnyard grass (BG) [6]) [%] | pest or weed control at 8966.8 g/ha (Cotton (CT) [7]) [%] | pest or weed control at 8966.8 g/ha (Turnip (TP) [8]) [%] | pest or weed control at 8966.8 g/ha (Cotton (CT) [9]) [%] | pest or weed control at 8966.8 g/ha (Bean (BN) [10]) [%] | pest or weed control at 8966.8 g/ha (Barnyard grass (BG) [11]) [%] | pest or weed control at 8966.8 g/ha (Johnson grass (JG) [12]) [%] | pest or weed control at 8966.8 g/ha (Corn (CN) [13]) [%] | pest or weed control at 8966.8 g/ha (Crabgrass (CG) [14]) [%] | pest or weed control at 8966.8 g/ha (Bean (BN) [15]) [%] | pest or weed control at 8966.8 g/ha (Amaranth pigweed (PW) [16]) [%] | pest or weed control at 8966.8 g/ha (Amaranth pigweed (PW) [17]) [%] |
| --- | --- | --- | --- | --- | --- | --- | --- | --- | --- | --- | --- | --- | --- | --- | --- | --- | --- |
| CNC(=O)Nc1nnc(-c2cccc(Cl)c2)s1 [Example 72] | 0 | 30 | 20 | 0 | 0 | 0 | 30 | 40 | 80 | 20 | 40 | 0 | 30 | 30 | 100 |  |  |
| CNC(=O)Nc1nnc(SCc2ccc(Cl)cc2)s1 [Example 87] | 10 |  | 10 | 10 | 10 | 20 | 70 | 60 | 50 | 100 | 20 | 20 | 10 | 20 | 100 | 70 | 40 |
